Results reported in ChEMBL document CHEMBL6096738, “Optimization of Single Relaxin B-Chain Peptide Leads to the Identification of R2R01, a Potent, Long-Acting RXFP1 Agonist for Cardiovascular and Renal Diseases” (J Med Chem, 2025).
Starred links: 1 amine or outer side, 2 acyl side, 3 side chain; linkers in the order of their positions; H or OH if unused. Non-standard residues stand in square brackets, D forms with d. Residues, ends and D or L forms follow the SMILES beside them. Groups on a side chain read outwards from the residue. *: point of attachment. X2 = CCCCCCCCCCCCCCCC(=O)N[C@@H](CCC(=O)N[C@@H](CCC(=O)N[C@@H](CCC(=O)NCCCOCCOCCOCCCNC(=O)CCC(=O)NCCCOCCOCCOCCCNC(=O)CCC(=O)NCCCOCCOCCOCCCN*)C(=O)O)C(=O)O)C(=O)O; X1 = CCCCCCCCCCCCCCCC(=O)N[C@@H](CCC(=O)N[C@@H](CCC(=O)N[C@@H](CCC(=O)NCCCOCCOCCOCCCNC(=O)CCC(=O)NCCCOCCOCCOCCCN*)C(=O)O)C(=O)O)C(=O)O; γGlu = O=C(O)[C@H](CCC(=O)[*:2])N[*:1]; Stearoyl = CCCCCCCCCCCCCCCCCC(=O)*; Suc = O=C(CCC(=O)[*:2])[*:1]; αMeK = C[C@](N)(CCCCN)C(=O)O; Nle = CCCC[C@H](N)C(=O)O; AEEA = NCCOCCOCC(=O)O; Aib = CC(C)(N)C(=O)O

How the values were obtained:
[1] = Induction of mast cell degranulation in human LAD2 cells assessed as beta-hexosaminidase release by measuring 4-methylumbelliferyl N-acetyl-beta-D-glucosaminide hydrolysis incubated for 30 mins by plate reader analysis; assay type: toxicity, cell-based; conditions: probe 4-methylumbelliferyl N-acetyl-beta-D-glucosaminide
[2] = Drug metabolism in female Gottingen pig assessed as fatty acid chain oxidation mediated M+16 metabolite formation by measuring metabolite to parent compound AUC ratio at 1 mg/kg, iv measured after 198 hrs by LC-HRMS analysis; assay type: ADME, organism-based, Sus scrofa; conditions: in vivo
[3] = Half-life in male Sprague-Dawley rat at 1 mg/kg, iv measured after 198 hrs by LC-HRMS analysis; assay type: ADME, organism-based; conditions: in vivo
[4] = Induction of mast cell degranulation in human LAD2 cells assessed as beta-hexosaminidase release by measuring maximal efficacy of 4-methylumbelliferyl N-acetyl-beta-D-glucosaminide hydrolysis at 33 uM incubated for 30 mins by plate reader analysis relative to control; assay type: toxicity, cell-based; conditions: probe 4-methylumbelliferyl N-acetyl-beta-D-glucosaminide
[5] = Drug metabolism in male Beagle dog assessed as fatty acid chain oxidation mediated M+16 metabolite formation by measuring metabolite to parent compound AUC ratio at 1 mg/kg, iv measured after 198 hrs by LC-HRMS analysis; assay type: ADME, organism-based, Canis lupus familiaris; conditions: in vivo
Relaxin receptor 1 [6] = target: T1, Relaxin receptor 1 (Homo sapiens, UniProt Q9HBX9); assay: Agonist activity at human RXFP1 expressed in 2%HSA treated human OVCAR-5 cells assessed as intracellular cAMP accumulation incubated for 30 mins with 2% HSA pretreated compound by HTRF assay; assay type: functional, cell-based
T1 sequence (Q9HBX9 whole entry): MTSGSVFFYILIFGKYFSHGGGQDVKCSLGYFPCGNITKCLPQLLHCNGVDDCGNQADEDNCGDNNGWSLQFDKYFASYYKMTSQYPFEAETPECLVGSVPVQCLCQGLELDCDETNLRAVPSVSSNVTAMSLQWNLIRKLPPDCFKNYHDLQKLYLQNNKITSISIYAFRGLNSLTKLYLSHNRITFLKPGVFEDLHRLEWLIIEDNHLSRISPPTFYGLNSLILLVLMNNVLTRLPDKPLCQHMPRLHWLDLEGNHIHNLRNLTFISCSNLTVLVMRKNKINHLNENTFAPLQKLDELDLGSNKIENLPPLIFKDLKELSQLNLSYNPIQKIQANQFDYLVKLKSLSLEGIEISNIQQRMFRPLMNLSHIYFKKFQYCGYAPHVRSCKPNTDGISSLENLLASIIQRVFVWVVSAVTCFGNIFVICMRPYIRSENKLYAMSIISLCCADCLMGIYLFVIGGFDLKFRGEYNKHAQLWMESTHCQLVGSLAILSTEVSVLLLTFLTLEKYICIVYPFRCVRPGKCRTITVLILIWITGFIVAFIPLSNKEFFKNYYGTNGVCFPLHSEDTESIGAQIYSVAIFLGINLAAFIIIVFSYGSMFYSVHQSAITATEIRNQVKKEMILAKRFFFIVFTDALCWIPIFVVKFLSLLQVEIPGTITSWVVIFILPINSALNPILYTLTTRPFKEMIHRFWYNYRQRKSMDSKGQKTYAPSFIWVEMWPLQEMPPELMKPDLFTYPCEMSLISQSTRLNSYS

[7] = AUC (0 to 24 hrs) in male Sprague-Dawley rat at 1 mg/kg, iv measured after 198 hrs by LC-HRMS analysis; assay type: ADME, organism-based; conditions: in vivo
[8] = target: T2, Relaxin receptor 1 (Homo sapiens) (UniProt Q9HBX9); assay: Agonist activity at human RXFP1 expressed in 2%HSA treated human OVCAR-5 cells assessed as intracellular cAMP accumulation by measuring maximal efficacy incubated for 30 mins with 2% HSA pretreated compound by HTRF assay relative to control; assay type: functional, cell-based; conditions: filed as agonist
T2 sequence (whole entry): T1 sequence (Q9HBX9 whole entry)

[9] = Bioavailability in male Sprague-Dawley rat at 3 mg/kg, sc measured after 198 hrs by LC-HRMS analysis; assay type: ADME, organism-based; conditions: in vivo
[10] = Cmax in male Sprague-Dawley rat at 3 mg/kg, sc measured after 198 hrs by LC-HRMS analysis; assay type: ADME, organism-based; conditions: in vivo
Relaxin receptor 1 [11] = target: T1, Relaxin receptor 1; assay: Agonist activity at human RXFP1 expressed in human OVCAR-5 cells assessed as intracellular cAMP accumulation incubated for 30 mins by HTRF assay; assay type: functional, cell-based
Rattus norvegicus [12] = assay: Chronotropic effect in pithed male Sprague-Dawley rat assessed as increase in heart rate at 0.3 mg/kg, iv measured after 60 mins relative to control; assay type: functional; conditions: 1 h
[13] = Half-life in male Beagle dog at 1 mg/kg, iv measured after 198 hrs by LC-HRMS analysis; assay type: ADME, organism-based, Canis lupus familiaris; conditions: in vivo
[14] = Bioavailability in female Gottingen pig at 1 mg/kg, sc measured after 198 hrs by LC-HRMS analysis; assay type: ADME, organism-based, Sus scrofa; conditions: in vivo
[15] = target: T2, Relaxin receptor 1 (Homo sapiens); assay: Agonist activity at human RXFP1 expressed in human OVCAR-5 cells assessed as intracellular cAMP accumulation by measuring maximal efficacy incubated for 30 mins by HTRF assay relative to control; assay type: functional, cell-based; conditions: filed as agonist
[16] = Half-life in female Gottingen pig at 1 mg/kg, iv measured after 198 hrs by LC-HRMS analysis; assay type: ADME, organism-based, Sus scrofa; conditions: in vivo
[17] = Drug metabolism in male Sprague-Dawley rat assessed as fatty acid chain oxidation mediated M+16 metabolite formation by measuring metabolite to parent compound AUC ratio at 1 mg/kg, iv measured after 198 hrs by LC-HRMS analysis; assay type: ADME, organism-based; conditions: in vivo
Rattus norvegicus [18] = assay: Chronotropic effect in telemetered male Sprague-Dawley rat assessed as increase in heart rate administered subcutaneously and measured after 48 hrs; assay type: functional, organism-based; conditions: dose 0.1-1 mg/kg, route sc
Rattus norvegicus [19] = assay: Chronotropic effect in pithed male Sprague-Dawley rat assessed as increase in heart rate at 1 mg/kg, iv measured after 60 mins relative to control; assay type: functional
[20] = Drug metabolism in male Beagle dog assessed as fatty acid chain oxidation mediated M+16 metabolite formation by measuring metabolite to parent compound AUC ratio at 3 mg/kg, sc measured after 198 hrs by LC-HRMS analysis; assay type: ADME, organism-based, Canis lupus familiaris; conditions: in vivo
[21] = Drug metabolism in male Sprague-Dawley rat assessed as fatty acid chain oxidation mediated M+16 metabolite formation by measuring metabolite to parent compound AUC ratio at 3 mg/kg, sc measured after 198 hrs by LC-HRMS analysis; assay type: ADME, organism-based; conditions: in vivo
[22] = Induction of immune response in human CD4+ T cells assessed as increase in auto reactive T cells at 3 uM preincubated with monocyte-derived immature dendritic cells followed by T cell addition and further stimulated on day 7 and 14 with autologous dendritic cells and measured after 5 days post last stimulation by IFNgamma-Elispot analysis; assay type: toxicity, cell-based; conditions: 120 h
[23] = Drug metabolism in female Gottingen pig assessed as fatty acid chain oxidation mediated M+16 metabolite formation by measuring metabolite to parent compound AUC ratio at 1 mg/kg, sc measured after 198 hrs by LC-HRMS analysis; assay type: ADME, organism-based, Sus scrofa; conditions: in vivo

Row | Ratio AUC [2] | half-life [3] | Ratio AUC [5] | EC50 (Relaxin receptor 1 [6]) | AUC(0-t) at 198 h [7] | Emax [8] | bioavailability [9] | Cmax [10] | EC50 (Relaxin receptor 1 [11]) | half-life [13] | bioavailability [14] | Emax [15] | half-life [16] | Ratio AUC [17] | Compound | EC50 at 30 min [1] | Emax at 0.5 h, 33 µM [4] | Activity (Rattus norvegicus [12]) | other results
1 | 0.32 | 8.7 h | 0.33 | 145 nM | 19.5 µM·h | 81% | 69% | 2000 nM | 1.28 nM | 9.2 h | 87% | 95% | 27.2 h | – | CCCCCCCCCCCCCCCC(=O)N[C@@H](CCC(=O)N[C@@H](CCC(=O)N[C@@H](CCC(=O)NCCCOCCOCCOCCCNC(=O)CCC(=O)NCCCOCCOCCOCCCNC(=O)CCC(=O)NCCCC[C@H](NC(=O)CNC(=O)[C@H](CCC(=O)O)NC(=O)C(C)(C)NC(=O)C(C)(C)NC(=O)[C@@H](NC(=O)[C@H](CCCCNC(C)=O)NC(=O)[C@H](C)NC(=O)[C@H](CCCNC(=N)N)NC(=O)[C@@H](NC(=O)[C@H](CCCCN)NC(=O)[C@H](CCC(=O)O)NC(=O)[C@H](CCCNC(=N)N)NC(=O)CNC(=O)[C@H](CCC(=O)O)NC(=O)[C@H](CC(C)C)NC(C)=O)C(C)C)[C@@H](C)CC)C(=O)N[C@@H](CO)C(=O)N[C@H](C(=O)N[C@@H](Cc1c[nH]c2ccccc12)C(=O)N[C@@H](CO)C(=O)NC(C)(C)C(=O)N[C@@H](CCCNC(=N)N)C(=O)N[C@@H](CCCCN)C(=O)N[C@@H](CCCCNC(C)=O)C(N)=O)[C@@H](C)O)C(=O)O)C(=O)O)C(=O)O (Ac-LEGREKVRAK(Ac)I[Aib][Aib]EGK([Suc-X1])STWS[Aib]RKK(Ac)-NH2) | 5500 nM | 58% | 31.4% | –
2 | 0.25 | 7.8 h | 0.11 | 26.5 nM | – | 86% | – | – | – | 8.8 h | 74% | 97% | 22.3 h | < 0.01 | CCCCCCCCCCCCCCCC(=O)N[C@@H](CCC(=O)N[C@@H](CCC(=O)N[C@@H](CCC(=O)NCCCOCCOCCOCCCNC(=O)CCC(=O)NCCCOCCOCCOCCCNC(=O)CCC(=O)NCCCOCCOCCOCCCNC(=O)CCC(=O)NCCCC[C@H](NC(=O)CNC(=O)[C@H](CCC(=O)O)NC(=O)C(C)(C)NC(=O)C(C)(C)NC(=O)[C@@H](NC(=O)[C@H](CCCCNC(C)=O)NC(=O)[C@H](C)NC(=O)[C@H](CCCNC(=N)N)NC(=O)[C@@H](NC(=O)[C@H](CCCCN)NC(=O)[C@H](CCC(=O)O)NC(=O)[C@H](CCCNC(=N)N)NC(=O)CNC(=O)[C@H](CCC(=O)O)NC(=O)[C@H](CC(C)C)NC(C)=O)C(C)C)[C@@H](C)CC)C(=O)N[C@@H](CO)C(=O)N[C@H](C(=O)N[C@@H](Cc1ccccc1)C(=O)N[C@@H](CO)C(=O)N[C@@](C)(CCCCN)C(=O)N[C@@H](CCCNC(=N)N)C(=O)N[C@@H](C)C(=O)N[C@@H](CCCCNC(C)=O)C(N)=O)[C@@H](C)O)C(=O)O)C(=O)O)C(=O)O (Ac-LEGREKVRAK(Ac)I[Aib][Aib]EGK([Suc-X2])STFS[αMeK]RAK(Ac)-NH2) | > 33000 nM | 48% | 40.3% | Activity (Rattus norvegicus [18]): Dose-dependent-effect
3 | 4 | 3.9 h | 19.4 | 18.4 nM | 9.4 µM·h | 89% | 74% | 1500 nM | 0.2 nM | 3.4 h | – | 84% | 7 h | < 0.1 | CCCCCCCCCCCCCCCCCC(=O)N[C@@H](CCC(=O)N[C@@H](CCC(=O)N[C@@H](CCC(=O)NCCOCCOCC(=O)NCCOCCOCC(=O)NCCOCCOCC(=O)NCCCC[C@H](NC(=O)[C@H](CCCCNC(C)=O)NC(=O)[C@H](CCCCN)NC(=O)[C@H](CCCNC(=N)N)NC(=O)C(C)(C)NC(=O)[C@H](CO)NC(=O)[C@H](Cc1c[nH]c2ccccc12)NC(=O)[C@@H](NC(=O)[C@H](CO)NC(=O)[C@H](CCCC)NC(=O)CNC(=O)[C@H](CCC(=O)O)NC(=O)C(C)(C)NC(=O)C(C)(C)NC(=O)[C@@H](NC(=O)[C@H](CCCCNC(C)=O)NC(=O)[C@H](C)NC(=O)[C@H](CCCNC(=N)N)NC(=O)[C@@H](NC(=O)[C@H](CCCCN)NC(=O)[C@H](CCC(=O)O)NC(=O)[C@H](CCCNC(=N)N)NC(=O)CNC(=O)[C@H](CCC(=O)O)NC(=O)[C@H](CC(C)C)NC(C)=O)C(C)C)[C@@H](C)CC)[C@@H](C)O)C(N)=O)C(=O)O)C(=O)O)C(=O)O (Ac-LEGREKVRAK(Ac)I[Aib][Aib]EG[Nle]STWS[Aib]RKK(Ac)K([AEEA-AEEA-AEEA-γGlu-γGlu-γGlu-Stearoyl])-NH2) | 1260 nM | 59.6% | – | Activity (Rattus norvegicus [19]): 29%; Ratio AUC [20]: 6.6; Ratio AUC [21]: 0.104; Activity [22]: Non-toxic; Ratio AUC [23]: 4
